Here are results for eleven molecules from patent EP0114002B1, “Benzothiopyrano(4,3,2,-cd)indazoles, their pharmaceutical compositions and methods for their production” (WARNER-LAMBERT COMPANY, priority 1983, dated 1984).

Molecules are shown by their SMILES. Read-outs that look alike come from different tables or passages of the source.

One assay has as its system L1210 cells. In words: L1210 murine leukemia cell growth inhibition in vitro. Type of assay: cell-based. The note with it: Mus musculus, 72 h. The method, then: Another test protocol uses L1210 cells, a murine leukemia cell line, grown in RPMI 1640 supplemented with 5% fetal bovine serum and gentamicin ([…]). Drug dilutions are prepared in the appropriate solvent and 20 µl of each dilution are added to 24-well Linbro tissue culture plates, followed by the addition of 2.0 ml of cell suspension containing 3 x 10^4 cells per ml. Solvent and medium controls are included in each test. After incubation at 37°C forthree days in 5% C02, the contents of each well are removed and the cells counted in a ZBI Coulter counter. Percent growth are calculated relative to the controls and the levels of drug activity are expressed as ID50 in moles per liter.

The next assay deals with HCT-8 cells. In words: in vitro proliferating human colon adenocarcinoma (HCA) cell screen. The format is cell-based. The method, then:
One test protocol is the in vitro proliferating human colon adenocarcinoma (HCA) cell screen. In this test, HCT-8 cells (HCA cell line received from Yale University) are trypsinized using trypsin-EDTA. A single cell suspension is achieved by passing the cells through a 26 gauge needle with a 20 cc syringe. A cell suspension is prepared using RPMI 1640 + 10% FCS + 50) g/ml gentamicin sulfate with a cell concentration of approximately 30,000 cells/ml. The cell suspension is dispensed in Linbro 24-well plates; 1 ml/well. The plates are incubated for approximately 48 hours at 37°C in a 5% C02 atmosphere. At this time test compounds are added in the appropriate concentration. Five µl of the 200 µg/ml stock solution is added to each well in primary test. Ten µl of the appropirate dilution is added to each well for a titration test. The plates are re-incubated an additional 60 to 65 hours at 37°C in a 5% C02 atmosphere. The cells are lysed using a mix of cationic surfactant, glacial acetic acid, and sodium chloride. Two ml of the lysed cell suspension from each well is added to 8 ml of diluent. The number of nuclei is determined using a Coulter counter (ZBI model), and a percent growth for each drug concentration is calculated. From this, an ID50 molar concentration of a compound (that results in 50% inhibition of growth) is determined.

Assay [1] concerns lymphocytic leukemia P388. In words: in vivo lymphocytic leukemia P388 test. Conditions: Mus musculus, P388, ip, 120 h, read-out: P388 in vivo T/C × 100; for response vs control in vivo at 25 mg/kg: Dose 25.00 mg/kg intraperitoneally once daily for five days; for response vs control in vivo at 6.25 mg/kg: Dose 6.25 mg/kg intraperitoneally once daily for five days; for response vs control in vivo at 12.5 mg/kg: Dose 12.50 mg/kg intraperitoneally once daily for five days; for response vs control in vivo at 100 mg/kg: Dose 100.00 mg/kg intraperitoneally once daily for five days. Set-up: species or system mice. Here is the method: Another test protocol is the in vivo lymphocytic leukemia P388 test. The animals used are either male or female CD2F, mice. There are six or seven animals per test group. The tumor transplant is by intraperitoneal injection of dilute ascitic fluid containing cells of lymphocytic leukemia P388. The test compounds are administered intraperitoneally once daily for five consecutive days at various doses following tumor inoculation. The animals are weighed and survivors are recorded on a regular basis for 30 days. A compound is designated "toxic" if, at a given dose, all animals died prior to four days after the first injection of drug. A ratio of survival time for treated (T)/control (C) animals is calculated. A criterion for efficacy is a ratio T/C times 100 greater than or equal to 125. See Cancer Chemotherapy Reports, Part 3, 3; 1 (1972) for a comprehensive discussion of the protocol.

Setting [2] is: Table 2, three days incubation, read-out: L1210 in vitro IC50.
[3] abbreviates: Table 2, 60 to 65 hours with compound, read-out: HCA—3 in vitro IC50.
Setting [4] is: Table 1, three days incubation, 50% inhibition of growth, read-out: L1210 in vitro ID50.
Setting [5] is: Table 1, 60 to 65 hours with compound, 50% inhibition of growth, read-out: HCA—3 in vitro ID50.

As to `CCN(CC)CCn1nc2c3c(c(NCCNCCO)ccc31)Sc1ccc(OC)cc1-2` [2-[[2-[[2-(2-(Diethylamino)ethyl]-9-methoxy-2H[1]benzothiopyrano[4,3,2-cd]indazol-5-yl]amino]ethyl]amino]ethanol], the values for the IC50 with L1210 cells (setting [2]) and in the assay on HCT-8 cells (setting [3]) were 200 nM and 230 nM, respectively. For the same molecule, in assay [1], the response vs control in vivo at 25 mg/kg amounted to 177%.
Take `CN(C)CCCn1nc2c3c(c(NCCN)ccc31)Sc1ccccc1-2` [(CH2)3N(CH3)2 / NHCH2CH2NH2, N-[2-[3-(dimethylamino)propyl]-2H[1]benzothiopyrano[4,3,2-cd]indazol-5-yl]-1,2-ethanediamine]: the IC50 in the assay on L1210 cells (setting [4]) is 29 nM. In addition, in the assay on HCT-8 cells (setting [5]), the IC50 is 130 nM. Further, in assay [1], the response vs control in vivo at 6.25 mg/kg is 185% and the response vs control in vivo at 12.5 mg/kg turned out to be 298%.
Take `CN(C)CCCn1nc2c3c(c([N+](=O)[O-])ccc31)Sc1ccccc1-2` [CH2CH2CH2N(CH3)2 / NO2, N,N dimethyl-5-nitro-2H[1]benzothiopyrano[4,3,2-cd]indazole-2-propanamine]: the IC50 in the assay with L1210 cells (setting [4]) was 190 nM. In addition, the IC50 in the assay with HCT-8 cells (setting [5]) was 210 nM. In assay [1], the response vs control in vivo at 25 mg/kg was found to be 121% and the response vs control in vivo at 100 mg/kg worked out at 141%.
As to `CCN(CC)CCn1nc2c3c(c(N)ccc31)Sc1ccc(O)cc1-2` [CH2CH2N(C2H5)2 / NH2 / 9-OH, 5-Amino-2-[2-(diethylamino)ethyl]-2H[1]benzothiopyrano[4,3,2-cd]indazol-9-ol], the IC50 with L1210 cells (setting [2]) worked out at 12 nM; in the assay with HCT-8 cells (setting [3]), 28 nM. Also, the response vs control in vivo at 6.25 mg/kg in assay [1] came to 238%.
For the molecule `CCN(CC)CCn1nc2c3c(c([N+](=O)[O-])ccc31)Sc1c(OC)ccc(OC)c1-2` [CH2CH2N(C2H5)2 / NO2 / 7,10-(OCH3)2, N,N-Diethyl-7,10-dimethoxy-5-nitro-2H[1]benzothiopyrano[4,3,2-cd]indazol-2-ethanamine], the values for the IC50 in the assay with L1210 cells (setting [2]) and with HCT-8 cells (setting [3]) were 1300 nM and 500 nM, respectively.
Consider `CCN(CC)CCn1nc2c3c(c([N+](=O)[O-])ccc31)Sc1c(O)ccc(O)c1-2` [CH2CH2N(C2H5)2 / NO2 / 7,10-(OH)2], for which the IC50 in the assay on L1210 cells (setting [2]) was 1700 nM.
With `CCN(CC)CCn1nc2c3c(c([N+](=O)[O-])ccc31)Sc1c(OC)ccc(O)c1-2` [CH2CH2N(C2H5)2 / NO2 / 7-OCH3, 10-OH, 2-[2-(diethylamino)-ethyl]-7-methoxy-5-nitro-2H[1]benzothiopyrano[4,3,2-cd]indazol-10-ol], the results for the IC50 with L1210 cells (setting [2]) and in the assay on HCT-8 cells (setting [3]) were 1000 nM and 420 nM, respectively.
Take `CCN(CC)CCn1nc2c3c(c(NCCN4CCOC4=O)ccc31)Sc1ccc(OC)cc1-2` [CH2CH2N(C2H5)2 / [drawing] / 9-OCH3, 3-[2-[[2-[2-(Diethylamino)ethyl]-9-methoxy-2H[1]benzothiopyrano[4,3,2-cd]indazol-5-yl]amino]ethyl]-2-oxazolidinone]: the IC50 in the assay on HCT-8 cells (setting [3]) is 1000 nM. Besides, in assay [1], the response vs control in vivo at 100 mg/kg is 220%.
With `NCCn1nc2c3c(c([N+](=O)[O-])ccc31)Sc1ccccc1-2` [CH2CH2NH2 / NO2 / >300], in assay [1], the response vs control in vivo at 12.5 mg/kg stood at 136% and the response vs control in vivo at 25 mg/kg is 187%.
Turning to `CCN(CC)CCn1nc2c3c(c(N)ccc31)Sc1ccc(OC)cc1-2` [CH2CH2NHCH2CH2OH / NH2 / 9-OCH3, 5-Amino-N,N-diethyl-9-methoxy-2H[1]benzothiopyrano[4,3,2-cd]indazole-2-ethanamine], in the assay on L1210 cells (setting [2]), the IC50 came out at 1600 nM. The response vs control in vivo at 50 mg/kg in assay [1] (Dose 50.00 mg/kg intraperitoneally once daily for five days) was 154%.
For `CCN(CC)CCn1nc2c3c(c([N+](=O)[O-])ccc31)Sc1ccc(OC)cc1-2` [CH2CH2NHCH2CH2OH / NO2 / C20H22N4O3S, N,N-Diethyl-9-methoxy-5-nitro-2H[1]benzothiopyrano[4,3,2-cd]indazole-2-ethanamine], the IC50 with L1210 cells (setting [2]) worked out at 640 nM. Besides, in assay [1], the response vs control in vivo at 12.5 mg/kg was found to be 142% and the response vs control in vivo at 25 mg/kg stood at 209%.
